The values below are quoted from earlier work in patent publication US20250177316A1, “Delayed-Release Granulates of Melatonin, Combinations Comprising Melatonin, Pharmaceutical Compositions and Dietary Supplements Containing Them, and Their Use in the Treatment of Insomnia and for the Reduction of the Time Required to Fall Asleep” (S.I.I.T. S.R.L. - SERVIZIO INTERNAZIONALE IMBALLAGGI …, priority 2022, published 2025).

Each structure is given as a SMILES string.

Consider `CC(O)C(=O)[O-].CC(O)C(=O)[O-].[Mg+2]` (centres unmarked) [magnesium lactate], for which the “pH of 5% solution in water” value is on record as 6.5-8.5. Take `CC(O)C(=O)[O-].CC(O)C(=O)[O-].[Ca+2]` (centres unmarked) [calcium lactate]: the “pH of 5% solution in water” value is reported as 6-8.
